Experiment [1] relates to MDA-MB-231. The experiment is described as follows: drug sensitivity score (DSS), cell viability CellTiter-Glo; higher = more sensitive; extreme values may be limits of the assay. To be noted: 72 h.
The subject of experiment [2] is MDA-MB-231. The experiment is described as follows: drug sensitivity score (DSS), cytotoxicity CellTox Green; higher = more cytotoxic; extreme values may be limits of the assay. To be noted: 72 h.

Drawing on the supplement of paper PMC10920090, this text covers drug sensitivity score for 16 compounds.
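Throughout, for drug sensitivity score (DSS), cytotoxicity CellTox Green: DSS summarises each dose–response curve by combining IC50, EC50, maximal inhibition and efficacy across drug concentrations.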

Regarding `COc1cccc2c1C(=O)c1c(O)c3c(c(O)c1C2=O)C[C@@](O)(C(C)=O)C[C@@H]3O[C@H]1C[C@H](N)[C@H](O)[C@H](C)O1` [Daunorubicin], the drug sensitivity score was 2.8 DSS in experiment [1] (shRNA: shPPFIA1_1), 7.5 DSS in experiment [1] (shRNA: shScramble), 0 DSS in experiment [2] (shRNA: shPPFIA1_1) and 0 DSS in experiment [2] (shRNA: shScramble).
With `Nc1ncn([C@H]2C[C@H](O)[C@@H](CO)O2)c(=O)n1` [Decitabine], the drug sensitivity score in experiment [1] (shRNA: shPPFIA1_1) came to 0.9 DSS; in experiment [1] (shRNA: shScramble), 1 DSS; in experiment [2] (shRNA: shPPFIA1_1) it was 0 DSS; in experiment [2] (shRNA: shScramble), 0 DSS.
With `CC(=O)N(O)CCCCCNC(=O)CCC(=O)N(O)CCCCCNC(=O)CCC(=O)N(O)CCCCCN` [Deferoxamine], the drug sensitivity score in experiment [1] (shRNA: shPPFIA1_1) worked out at 2.5 DSS; in experiment [1] (shRNA: shScramble), 2.7 DSS; in experiment [2] (shRNA: shPPFIA1_1), 0 DSS; in experiment [2] (shRNA: shScramble), 0 DSS.
`C[C@@H]1C[C@H]2[C@@H]3CCC4=CC(=O)C=C[C@]4(C)[C@@]3(F)[C@@H](O)C[C@]2(C)[C@@]1(O)C(=O)CO` [Dexamethasone]: the drug sensitivity score in experiment [1] (shRNA: shPPFIA1_1), in experiment [1] (shRNA: shScramble), in experiment [2] (shRNA: shPPFIA1_1) and in experiment [2] (shRNA: shScramble) was 0 DSS throughout.
Take `CCc1cnn2c(NCc3ccc[n+]([O-])c3)cc(N3CCCC[C@H]3CCO)nc12` [Dinaciclib]: the drug sensitivity score was found to be 13.8 DSS in experiment [1] (shRNA: shPPFIA1_1), 18.7 DSS in experiment [1] (shRNA: shScramble), 15.4 DSS in experiment [2] (shRNA: shPPFIA1_1) and 8.8 DSS in experiment [2] (shRNA: shScramble).
For `CCN(CC)C(=S)SSC(=S)N(CC)CC` [Disulfiram], in that order: 6.5 DSS, 14.3 DSS, 6.4 DSS and 7 DSS.
For `Cc1ccc(-n2nc(C(C)(C)C)cc2NC(=O)Nc2ccc(OCCN3CCOCC3)c3ccccc23)cc1` [Doramapimod], in that order: 0 DSS, 2.5 DSS, 0 DSS and 0 DSS.
For `CN1CCN(c2ccc3nc(-c4c(N)c5c(F)cccc5[nH]c4=O)[nH]c3c2)CC1` [Dovitinib], in that order: 0 DSS, 0 DSS, 0 DSS and 0 DSS.
With `COc1cccc2c1C(=O)c1c(O)c3c(c(O)c1C2=O)C[C@@](O)(C(=O)CO)C[C@@H]3O[C@H]1C[C@H](N)[C@H](O)[C@H](C)O1` [Doxorubicin], the drug sensitivity score in experiment [1] (shRNA: shPPFIA1_1) is 1.4 DSS; in experiment [1] (shRNA: shScramble), 6.8 DSS; in experiment [2] (shRNA: shPPFIA1_1) it was 0 DSS; in experiment [2] (shRNA: shScramble), 0 DSS.
For `C[C@H](Nc1ncnc2nc[nH]c12)c1cc2cccc(Cl)c2c(=O)n1-c1ccccc1` [Duvelisib], the drug sensitivity score in experiment [1] (shRNA: shPPFIA1_1) was determined as 3 DSS; in experiment [1] (shRNA: shScramble), 0 DSS; in experiment [2] (shRNA: shPPFIA1_1) it was 0 DSS; in experiment [2] (shRNA: shScramble) it was 3.3 DSS.
Consider `Cc1cc(Nc2cc(N3CCN(C)CC3)nc(/C=C/c3ccccc3)n2)n[nH]1` [ENMD-2076], for which the drug sensitivity score in experiment [1] (shRNA: shPPFIA1_1) amounted to 3.8 DSS; in experiment [1] (shRNA: shScramble), 8.8 DSS; in experiment [2] (shRNA: shPPFIA1_1) it was 2 DSS; in experiment [2] (shRNA: shScramble), 0.9 DSS.
For `Cc1cc(C)c(CNC(=O)c2cc(-c3ccc(CN4CCOCC4)cc3)cc3c2cnn3C2CCCC2)c(=O)[nH]1` [EPZ-5687], in that order: 3.5 DSS, 0 DSS, 0 DSS and 0 DSS.
For `COC(=O)N[C@@H](C)CNc1nccc(-c2cn(C(C)C)nc2-c2cc(Cl)cc(NS(C)(=O)=O)c2F)n1` [Encorafenib], in that order: 0 DSS, 1.3 DSS, 0 DSS and 0 DSS.
For `Nc1ccccc1NC(=O)c1ccc(CNC(=O)OCc2cccnc2)cc1` [Entinostat], in that order: 0.3 DSS, 4.5 DSS, 3.9 DSS and 0.2 DSS.
Regarding `c1cn2cc(-c3ccc4cn[nH]c4c3)nc(Nc3ccc(N4CCOCC4)cc3)c2n1` [Entospletinib], the drug sensitivity score in experiment [1] (shRNA: shPPFIA1_1) stood at 0.9 DSS; in experiment [1] (shRNA: shScramble), 0 DSS; in experiment [2] (shRNA: shPPFIA1_1), 10.3 DSS; in experiment [2] (shRNA: shScramble), 0 DSS.
With `CNC(=O)c1ccc(N2C(=S)N(c3ccc(C#N)c(C(F)(F)F)c3)C(=O)C2(C)C)cc1F` [Enzalutamide], the drug sensitivity score in experiment [1] (shRNA: shPPFIA1_1), in experiment [1] (shRNA: shScramble), in experiment [2] (shRNA: shPPFIA1_1) and in experiment [2] (shRNA: shScramble) was 0 DSS in each case.
